Measurements taken from patent US20260055083A1, “APOL1 INHIBITORS AND METHODS OF USE” (Maze Therapeutics, Inc., priority 2022, published 2026).

Columns and labels:
[1] = target: T1, APOL1 G2 (Homo sapiens, UniProt O14791, DEL388-389); assay: APOL1 G2 HEK293 rescue of cell death caused by overexpression of APOL1 (CellTiter-Glo); format: cell-based; details: HEK293/T-REx APOL1 G2 clone #2, doxycycline induction, 17 hours, CellTiter-Glo luminescence; reversal of cell death; geometric mean of at least 2 assay runs
T1 construct: expressed in transfected cells; host or cells: HEK293/T-REx APOL1 G2 clone #2, doxycycline-inducible
T1 sequence (O14791 with tags, fused parts or gaps DEL388-389): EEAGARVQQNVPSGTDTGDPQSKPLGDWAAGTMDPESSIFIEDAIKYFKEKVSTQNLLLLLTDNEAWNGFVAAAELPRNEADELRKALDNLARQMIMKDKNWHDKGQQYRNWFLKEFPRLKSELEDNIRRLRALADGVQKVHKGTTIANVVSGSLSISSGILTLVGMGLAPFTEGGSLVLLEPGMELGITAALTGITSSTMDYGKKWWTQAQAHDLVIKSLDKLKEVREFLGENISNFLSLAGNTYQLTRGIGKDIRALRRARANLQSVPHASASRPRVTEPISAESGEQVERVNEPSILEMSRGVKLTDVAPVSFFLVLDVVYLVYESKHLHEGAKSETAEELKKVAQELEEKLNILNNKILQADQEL
Outline: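 Viability read by CellTiter-Glo luminescence after 17 h, 37 °C, in HEK293/T-REx cells expressing APOL1 G2 on 6 ng/mL doxycycline, 5,000 cells/well. Compounds tested as duplicate 8-point, 3-fold dilutions, 0.5% DMSO final; four-parameter logistic EC50, usually geometric mean of ≥2 days.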

[2] = target: T1, APOL1 G2; assay: APOL1 G2 FLIPR calcium influx assay (HEK T-REx/GCaMP6f/APOL1 G2 K6.3 cells); format: cell-based; details: HEK293 clone expressing GCaMP6f, doxycycline-induced APOL1 G2; prevention of calcium influx; geometric mean of at least 2 assay runs
Outline: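 Cells express GCaMP6f stably and APOL1 G2 after a 6 h doxycycline induction. Duplicate 8-point dilutions sit 10 min at room temperature in Ca2+-free Tyrode's (pH 7.4), then Ca2+ is injected to 5 mM final and the FLIPR signal recorded. AC50s are geometric means across ≥2 days.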

C[C@@H]1C[C@H](COc2ccc(S(C)(=O)=O)cc2)CN1C1CCc2c(Cl)cccc2C1 (stereo partly drawn) [Compound 88, (2R,4S)-1-(5-chloro-1,2,3,4-tetrahydronaphthalen-2-yl)-4-[(4-methanesulfonylphenoxy)methyl]-2-methylpyrrolidine]
EC50 [1]: 215 nM | AC50 [2]: 843 nM

C[C@@H]1C[C@H](COc2ccc(S(=O)(=O)CCS(C)(=O)=O)cc2)CN1C1CCc2ccc(C#N)cc2C1 (single isomer, unassigned) [Compound 31]
EC50 [1]: 234 nM | AC50 [2]: 773 nM

CC(=O)N(C)CCS(=O)(=O)c1ccc(OC[C@@H]2CN(CCc3cc(Cl)cc(C#N)c3)C[C@H]2C)cc1 [Compound 75, N-[2-(4-{[(3S,4S)-1-[2-(3-chloro-5-cyanophenyl)ethyl]-4-methylpyrrolidin-3-yl]methoxy}benzenesulfonyl)ethyl]-N-methylacetamide]
EC50 [1]: 70.6 nM | AC50 [2]: 419 nM

C[C@@H]1CN(C(CO)Cc2cc(Cl)cc(C#N)c2)C[C@H]1COc1ccc(S(C)(=O)=O)cc1 (single isomer, unassigned) [Compound 122, 3-chloro-5-[(2S or 2R)-3-hydroxy-2-[(3S,4S)-3-[(4-methanesulfonylphenoxy)methyl]-4-methylpyrrolidin-1-yl]propyl]benzonitrile]
EC50 [1]: 789 nM | AC50 [2]: 1110 nM

C[C@@H]1C[C@H](COc2ccc(S(=O)(=O)CCCS(C)(=O)=O)cc2)CN1C1CCc2ccc(Cl)cc2C1 (single isomer, unassigned) [Compound 53, (2R,4S)-1-[(2R or 2S)-7-chloro-1,2,3,4-tetrahydronaphthalen-2-yl]-4-{[4-(3-methanesulfonylpropanesulfonyl)phenoxy]methyl}-2-methylpyrrolidine]
EC50 [1]: 279 nM | AC50 [2]: 999 nM

C[C@@H]1C[C@H](COc2ccc(S(=O)(=O)CCS(C)(=O)=O)cc2)CN1C1CCc2ccc(Cl)cc2C1 (single isomer, unassigned) [Compound 50, (2R,4S)-1-[(2S or 2R)-7-chloro-1,2,3,4-tetrahydronaphthalen-2-yl]-4-{[4-(2-methanesulfonylethanesulfonyl)phenoxy]methyl}-2-methylpyrrolidine]
EC50 [1]: 346 nM | AC50 [2]: 1070 nM

CS(=O)(=O)c1ccc(OC[C@@H]2CN(C(CO)Cc3cccc(Cl)c3)CCN2)cc1 (single isomer, unassigned) [Compound 118, (2R or 2S)-3-(3-chlorophenyl)-2-[(3S)-3-[(4-methanesulfonylphenoxy)methyl]piperazin-1-yl]propan-1-ol]
EC50 [1]: > 10000 nM | AC50 [2]: 1250 nM

CN=S(C)(=O)c1ccc(OC[C@@H]2CN(CCc3cccc(C#N)c3)C[C@H]2C)cn1 (single isomer, unassigned) [Compound 72]
EC50 [1]: 217 nM | AC50 [2]: 183 nM

CS(=O)(=O)c1ccc(OC[C@@H]2CN(CCc3cc(Cl)cc(C#N)c3)CCN2)cc1C(F)(F)F [Compound 114, 3-chloro-5-{2-[(3S)-3-{[4-methanesulfonyl-3-(trifluoromethyl)phenoxy]methyl}piperazin-1-yl]ethyl}benzonitrile]
EC50 [1]: 295 nM | AC50 [2]: 868 nM

C[C@@H]1C[C@H](COc2ccc(S(=O)(=O)CCO)cc2)CN1C1CCc2ccc(C#N)cc2C1 (single isomer, unassigned) [Compound 59, (7R or 7S)-7-[(2R,4S)-4-{[4-(2-hydroxyethanesulfonyl)phenoxy]methyl}-2-methylpyrrolidin-1-yl]-5,6,7,8-tetrahydronaphthalene-2-carbonitrile]
EC50 [1]: 380 nM | AC50 [2]: 794 nM

C[C@@H]1C[C@H](COc2ccc(S(=O)(=O)CCCS(C)(=O)=O)cc2)CN1C1CCc2c(C#N)cc(Cl)cc2C1 (single isomer, unassigned) [Compound 44, (6R or 6S)-3-chloro-6-[(2R,4S)-4-{[4-(3-methanesulfonylpropanesulfonyl)phenoxy]methyl}-2-methylpyrrolidin-1-yl]-5,6,7,8-tetrahydronaphthalene-1-carbonitrile]
EC50 [1]: 312 nM | AC50 [2]: 1380 nM

C[C@@H]1C[C@H](COc2ccc(S(=O)(=O)CCO)cc2)CN1C1CCc2ccc(C#N)cc2C1 (stereo partly drawn) [Compound 58, 7-[(2R,4S)-4-{[4-(2-hydroxyethanesulfonyl)phenoxy]methyl}-2-methylpyrrolidin-1-yl]-5,6,7,8-tetrahydronaphthalene-2-carbonitrile]
EC50 [1]: 43.5 nM | AC50 [2]: 581 nM

C[C@@H]1C[C@H](COc2ccc(S(=O)(=O)CCO)cc2)CN1C1CCc2c(C#N)cc(Cl)cc2C1 (single isomer, unassigned) [Compound 56, (6R or 6S)-3-chloro-6-[(2R,4S)-4-{[4-(2-hydroxyethanesulfonyl)phenoxy]methyl}-2-methylpyrrolidin-1-yl]-5,6,7,8-tetrahydronaphthalene-1-carbonitrile]
EC50 [1]: 185 nM | AC50 [2]: 714 nM

CC(C(O)c1cc(Cl)cc(C#N)c1)N1C[C@@H](COc2ccc(S(C)(=O)=O)cc2)[C@H](C)C1 (single isomer, unassigned) [Compound 102, 3-chloro-5-((1R,2R or 1S,2S)-1-hydroxy-2-((3S,4S)-3-methyl-4-((4-(methylsulfonyl)phenoxy)methyl)pyrrolidin-1-yl)propyl)benzonitrile]
EC50 [1]: > 10000 nM | AC50 [2]: 744 nM

C[C@@H]1C[C@H](COc2ccc(S(C)(=O)=O)cc2)CN1C1CCc2c(C#N)cccc2C1 (single isomer, unassigned) [Compound 135, (6S or 6S)-6-[(2R,4S)-4-[(4-methanesulfonylphenoxy)methyl]-2-methylpyrrolidin-1-yl]-5,6,7,8-tetrahydronaphthalene-1-carbonitrile]
EC50 [1]: 84.2 nM | AC50 [2]: 576 nM

C[C@@H]1C[C@H](COc2ccc(S(=O)(=O)CCS(C)(=O)=O)cc2)CN1C1CCc2ccc(C#N)cc2C1 (single isomer, unassigned) [Compound 32]
EC50 [1]: 353 nM | AC50 [2]: 769 nM

C[C@@H]1C[C@H](COc2ccc(S(C)(=O)=O)cc2)CN1C1Cc2ccc(Cl)cc2C1 (single isomer, unassigned) [Compound 4, (2R,4S)-1-[(2S or 2R)-5-chloro-2,3-dihydro-1H-inden-2-yl]-4-[(4-methanesulfonylphenoxy)methyl]-2-methylpyrrolidine]
EC50 [1]: 2350 nM | AC50 [2]: 1140 nM

C[C@@H]1C[C@H](COc2cnc(S(C)(=O)=O)cn2)CN1CCc1cccc(C#N)c1 [Compound 1, 3-(2-((2R,4S)-2-methyl-4-(((5-(methylsulfonyl)pyrazin-2-yl)oxy)methyl)pyrrolidin-1-yl)ethyl)benzonitrile]
EC50 [1]: 53.7 nM | AC50 [2]: 39.7 nM

C[C@@H]1C[C@H](COc2ccc(S(=O)(=O)CCO)cc2)CN1C1CCc2ccc(Cl)cc2C1 (stereo partly drawn) [Compound 61, 2-(4-{[(3S,5R)-1-[7-chloro-1,2,3,4-tetrahydronaphthalen-2-yl]-5-methylpyrrolidin-3-yl]methoxy}benzenesulfonyl)ethan-1-ol]
EC50 [1]: 63.3 nM | AC50 [2]: 698 nM

C[C@@H]1C[C@H](COc2ccc(S(C)(=O)=O)cc2)CN1CC(CO)c1cc(Cl)cc(C#N)c1 (single isomer, unassigned) [Compound 129, 3-chloro-5-[(2R or 2S)-1-hydroxy-3-[(2R,4S)-4-[(4-methanesulfonylphenoxy)methyl]-2-methylpyrrolidin-1-yl]propan-2-yl]benzonitrile]
EC50 [1]: 2140 nM | AC50 [2]: 4250 nM
